Measurements: publication PMC11232109, “Synthesis, anticancer evaluation of novel hybrid pyrazole-based chalcones, molecular docking, DNA fragmentation, and gene expression: in vitro studies” (RSC Advances, 2024)
“And” between values parts separate entries of the source, which are not always exact repeats. Identical values can stand only once. Like-named read-outs stand apart in the source and are kept apart here. Marks after values point to notes of the source that are not given here. Each block holds one molecule with its values, some of them ahead of it.

Tests used:
PC3 (prostatic cancer) = assay: MTT assay, PC3; type: cell-based
Procedure: (§1) The percentage of the cell viability treated with the newly synthesized compounds was evaluated using MTT assay (3-(4,5-dimethylthiazol-2-yl)-2,5-diphenyl tetrazolium bromide). All the subsequent steps were done in a sterile Laminar flow class II biosafety cabinet (Baker, SG406INT, Sanford, ME, USA). DMEM was used as a suspension medium for breast cancer (MCF7), prostate cancer (PC3), and pancreatic cancer (PACA2), while normal cell line (BJ1) was suspended in DMEM-F12 medium, a 1% antibiotic-antimycotic mixture (10 000 U ml^−1 potassium penicillin, 10 000 μg ml^−1 streptomycin sulfate, and 25 μg ml^−1 amphotericin B), and 1% L-glutamine at 37 °C under 5% CO2.
(§2) Cells were cultured for 10 days and then seeded at a concentration of 10 × 10^4 cells per well in fresh complete growth medium in 96-well microtiter plastic plates at 37 °C for 24 hours under 5% CO2 using a water-jacketed carbon dioxide incubator (Sheldon, TC2323). Media were aspirated, serum-free fresh medium was added, and cells were incubated either alone (negative control) or with different concentrations of the synthesized chalcone derivatives to a final concentration of (100–50–25–12.5–6.25–3.125–0.78 and 1.56 μg ml^−1). After incubation for 48 hours, the medium was aspirated and 40 μl of MTT salt ([…]) was added to each well and incubated for another four hours at 37 °C under 5% CO2. To stop the reaction and dissolve the formed crystals, 200 μl of 10% sodium dodecyl sulfate (SDS) in deionized water was added to each well and incubated overnight at 37 °C.
(§3) The absorbance was then measured at 595 nm and a reference wavelength of 620 nm using a microplate multi-well reader (Bio-Rad Laboratories Inc., model 3350). Statistical significance was tested between the samples and the negative control (cells with vehicle) using an independent t-test using the SPSS 11 program. DMSO was the vehicle used for the dissolution of the synthesized chalcones, and its final concentration on the cells was less than 0.2%. The percentage of change in viability was calculated according to the formula: ((reading of extract/reading of negative control) − 1) × 100. A Probit analysis was carried out for the determination of IC50 using the SPSS 11 program.

[1] = system: PACA2 (pancreatic carcinoma); assay: MTT assay, PACA2; type: cell-based; details: for cytotoxicity at 100 µg/mL / IC50: Homo sapiens; for IC50: 48 hours
Procedure: as §1, §2, §3

[2] = system: MCF7 (human breast adenocarcinoma); assay: MTT assay, MCF7; type: cell-based; details: for cytotoxicity at 100 µg/mL / IC50: Homo sapiens; for IC50: 48 hours
Procedure: as §1, §2, §3

[3] = MTT assay, normal cell line BJ1; type: cell-based; details: human, at 100 μg ml^−1, 48 hours, read-out: (%) Mortality of BJ1
Procedure: as §1, §2, §3

PACA2 cell lines = assay: DNA fragmentation assay, PACA2; type: cell-based, human; details: for DNA fragmentation, Inhibition (%): PACA2; for DNA fragmentation (%) M ± SEM: PACA2, 24 hours of exposure, −ve control 8.3 ± 0.31; for DNA fragmentation, Change: PACA2, change versus −ve control
Procedure: The DNA fragmentation assay in breast and pancreatic cancer cell lines was performed in accordance with the method of Helmy et al., 2022 (ref. [15]) with some modifications. Briefly, after 24 hours of exposure of breast and pancreatic cancer cell lines to the tested chalcone compounds in different Petri dishes (60 × 15 mm, Greiner), the cells were trypsinized, suspended, homogenized in 1 ml of medium, and centrifuged (10 min at 800 rpm). Low-molecular-weight genomic DNA was extracted as described in Yawata et al., 1998.[52] Approximately 1 × 10^6 cells were plated and treated with the tested substances in various treatments. All the cells (including floating cells) were harvested by trypsinization and washed with Dulbecco's phosphate-buffered saline. Cells were lysed with the lysis buffer containing 10 mM Tris (pH 7.4), 150 mM NaCl, 5 mM EDTA, and 0.5% Triton X-100 for 30 minutes on ice. Lysates were vortexed and cleared by centrifugation at 10 000 g for 20 min. Fragmented DNA in the supernatant was extracted with an equal volume of a neutral phenol/chloroform/isoamyl alcohol mixture (25 : 24 : 1) and analyzed electrophoretically on 2% agarose gels containing 0.1 μg ml^−1 ethidium bromide.

- IC50 (PC3 (prostatic cancer); Homo sapiens, MTT, 48 hours): 66.9 ± 0.98 µM
- IC50 ([1]; PaCa-2, MTT): 51.9 ± 0.29 µM
- IC50 ([2]; MCF7, MTT): 42.6 ± 0.71 µM
SMILES: Cc1nn(-c2ccccc2)c(C=CC(=O)c2c(-c3cccs3)nn(-c3ccc([N+](=O)[O-])cc3)c2C)c1Cl [Compound 7d, 3-(4-Chloro-3-methyl-1-phenyl-1H-pyrazol-5-yl)-1-(5-methyl-1-(4-nitrophenyl)-3-(thiophen-2-yl)-1H-pyrazol-4-yl)prop-2-en-1-one]
- cytotoxicity at 100 µg/mL (PC3 (prostatic cancer); Homo sapiens, 48 h, at 100 μg ml^−1, 48 hours, MTT, read-out: (%) Mortality of PC3): 70 to 80%
- cytotoxicity (PC3 (prostatic cancer); at 100 μg ml^−1, 48 hours, MTT, read-out: (%) Mortality of PC3): 70.6 ± 0.97%
- cytotoxicity at 100 µg/mL ([1]; PaCa-2, 48 h, at 100 μg ml^−1, 48 hours, MTT, read-out: (%) Mortality of PACA2): 70 to 80%
- cytotoxicity ([1]; at 100 μg ml^−1, 48 hours, MTT, read-out: (%) Mortality of PACA2): 80.3 ± 19%
- cytotoxicity at 100 µg/mL ([2]; MCF7, 48 h, at 100 μg ml^−1, 48 hours, MTT, read-out: (%) Mortality of MCF7): 70 to 80%
- cytotoxicity ([2]; at 100 μg ml^−1, 48 hours, MTT, read-out: (%) Mortality of MCF7): 71.2 ± 0.14%
- cytotoxicity at 48 h, 100 μg ml^−1 ([3]; BJ1 normal skin fibroblasts): 12.3 ± 0.23%

SMILES: Cc1c(C(=O)C=Cc2nn(-c3ccccc3)cc2-c2ccc([N+](=O)[O-])cc2)c(-c2cccs2)nn1-c1ccc([N+](=O)[O-])cc1 [Compound 9e, 1-(5-Methyl-1-(4-nitrophenyl)-3-(thiophen-2-yl)-1H-pyrazol-4-yl)-3-(4-(4-nitrophenyl)-1-phenyl-1H-pyrazol-3-yl)prop-2-en-1-one]
- DNA fragmentation, Inhibition (%) (PACA2 cell lines): 24.45%
- DNA fragmentation (%) M ± SEM (PACA2 cell lines): 24.2 ± 0.57% and 24.2 ± 0.57^a %
- DNA fragmentation, Change (PACA2 cell lines): 15.9
- cytotoxicity at 100 µg/mL (PC3 (prostatic cancer); Homo sapiens, 48 h, read-out: (%) Mortality of PC3): 5.3 ± 0.94%
- cytotoxicity at 100 µg/mL ([1]; PaCa-2, 48 h, read-out: (%) Mortality of PACA2): 100%
- IC50 ([1]; PaCa-2, MTT): 27.6 ± 0.33 µM
- cytotoxicity at 100 µg/mL ([2]; MCF7, 48 h, read-out: (%) Mortality of MCF7): 14.2 ± 0.37%
- IC50 ([2]; MCF7, MTT): 59.3 ± 0.85 µM
- cytotoxicity at 48 h, 100 μg ml^−1 [3]: 5.6 ± 0.55%

SMILES: COc1cccc2c1C(=O)c1c(O)c3c(c(O)c1C2=O)C[C@@](O)(C(=O)CO)C[C@@H]3O[C@H]1C[C@H](N)[C@H](O)[C@H](C)O1 [Doxorubicin, reference compound]
- DNA fragmentation, Inhibition (%) (PACA2 cell lines): 17.94%
- DNA fragmentation (%) M ± SEM (PACA2 cell lines): 21.5 ± 0.46%
- DNA fragmentation (%) M ± SEM (PACA2 cell lines; listed as PACA (+ve) control): 21.5 ± 0.46^a %
- DNA fragmentation, Change (PACA2 cell lines): 13.2
- cytotoxicity at 100 µg/mL (PC3 (prostatic cancer); Homo sapiens, at 100 μg ml^−1, 48 hours, MTT, read-out: (%) Mortality of PC3): 100%
- cytotoxicity at 100 µg/mL ([1]; PaCa-2, at 100 μg ml^−1, 48 hours, MTT, read-out: (%) Mortality of PACA2): 100%
- IC50 ([2]; MCF7, MTT): 48 ± 0.74 µM
- cytotoxicity at 100 µg/mL ([2]; MCF7, at 100 μg ml^−1, 48 hours, MTT, read-out: (%) Mortality of MCF7): 100%
- cytotoxicity at 48 h, 100 μg ml^−1 ([3]; BJ1 normal skin fibroblasts): 100%
